Source: paper PMC5218480 (PLoS ONE, 2017)

System: MV-4-11 cells
Assay: Gene expression microarray analysis (Affymetrix PrimeView) and GSEA
Format: cell-based, human
Design: RFU PODN (11730768_x_at) / Fold change /veh PODN (11730768_x_at) / RFU LINC00158 (11744669_a_at) / Fold change /veh LINC00158 (11744669_a_at) / RFU DUSP10 (11751237_a_at) / Fold change /veh DUSP10 (11751237_a_at) / RFU ID3 (11757404_x_at) / Fold change /veh ID3 (11757404_x_at) / RFU PLEKHG5 (11737974_s_at) / Fold change /veh PLEKHG5 (11737974_s_at) / RFU LRRC4B (11730491_at) / Fold change /veh LRRC4B (11730491_at) / RFU GIMAP4 (11747438_a_at) / Fold change /veh GIMAP4 (11747438_a_at) / RFU KRT8 (11758183_x_at) / Fold change /veh KRT8 (11758183_x_at) / RFU CNN1 (11734310_a_at) / Fold change /veh CNN1 (11734310_a_at) / RFU VPS37D (11726825_at) / Fold change /veh VPS37D (11726825_at) / RFU C10orf10 (11716522_x_at) / Fold change /veh C10orf10 (11716522_x_at) / RFU KIR2DL2 /// KIR2DL4 /// KIR2DL5A /// KIR2DL5B /// KIR2DS1 /// KIR2DS2 /// KIR2DS3 /// KIR2DS4 /// KIR3DL3 /// KIR3DL3 /// KIR3DS1 (11738374_at) / Fold change /veh KIR2DL2 /// KIR2DL4 /// KIR2DL5A /// KIR2DL5B /// KIR2DS1 /// KIR2DS2 /// KIR2DS3 /// KIR2DS4 /// KIR3DL3 /// KIR3DL3 /// KIR3DS1 (11738374_at) / RFU C1QL1 (11718748_at) / Fold change /veh C1QL1 (11718748_at) / RFU TMPRSS4 (11747572_a_at) / Fold change /veh TMPRSS4 (11747572_a_at) / RFU HAMP (11756126_x_at) / Fold change /veh HAMP (11756126_x_at) / RFU RNFT2 (11725882_a_at) / Fold change /veh RNFT2 (11725882_a_at) / RFU NR4A2 (11747474_a_at) / Fold change /veh NR4A2 (11747474_a_at) / RFU ABCC12 (11746883_a_at) / Fold change /veh ABCC12 (11746883_a_at) / RFU TMEM136 (11760407_x_at) / Fold change /veh TMEM136 (11760407_x_at) / RFU CLDN22 /// WWC2 (11732394_at) / Fold change /veh CLDN22 /// WWC2 (11732394_at) / RFU HLA-DPB1 (11760878_x_at) / Fold change /veh HLA-DPB1 (11760878_x_at) / RFU SPINT1 (11716480_a_at) / Fold change /veh SPINT1 (11716480_a_at) / RFU GAP43 (11754022_s_at) / Fold change /veh GAP43 (11754022_s_at) / RFU A4GNT (11735810_at) / Fold change /veh A4GNT (11735810_at) / RFU PRB3 (11715151_x_at) / Fold change /veh PRB3 (11715151_x_at) / RFU TUBB4B (11761932_at) / Fold change /veh TUBB4B (11761932_at) / RFU CAPN14 (11732068_a_at) / Fold change /veh CAPN14 (11732068_a_at) / RFU TMCC2 (11721928_a_at) / Fold change /veh TMCC2 (11721928_a_at) / RFU IRGQ (11745062_a_at) / Fold change /veh IRGQ (11745062_a_at) / RFU FAM174B (11720279_a_at) / Fold change /veh FAM174B (11720279_a_at) / RFU TMPRSS4 (11748680_a_at) / Fold change /veh TMPRSS4 (11748680_a_at) / RFU FAM212B (11763350_a_at) / Fold change /veh FAM212B (11763350_a_at) / RFU PLEKHG5 (11743358_a_at) / Fold change /veh PLEKHG5 (11743358_a_at) / RFU ZSCAN30 (11745921_a_at) / Fold change /veh ZSCAN30 (11745921_a_at) / RFU CMKLR1 (11741424_a_at) / Fold change /veh CMKLR1 (11741424_a_at) / RFU LOC101060620 /// MAPK8IP1 (11723275_at) / Fold change /veh LOC101060620 /// MAPK8IP1 (11723275_at) / RFU SPTSSB (11747773_x_at) / Fold change /veh SPTSSB (11747773_x_at) / RFU PRSS12 (11739890_at) / Fold change /veh PRSS12 (11739890_at) / RFU BIN1 (11741810_x_at) / Fold change /veh BIN1 (11741810_x_at) / RFU WNT11 (11732464_a_at) / Fold change /veh WNT11 (11732464_a_at) / RFU C10orf10 (11716521_a_at) / Fold change /veh C10orf10 (11716521_a_at) / RFU C5orf56 (11738089_at) / Fold change /veh C5orf56 (11738089_at) / RFU CYB561 (11721691_x_at) / Fold change /veh CYB561 (11721691_x_at) / RFU ANKRD19P (11752326_a_at) / Fold change /veh ANKRD19P (11752326_a_at) / RFU OR2T12 /// OR2T33 /// OR2T8 (11738714_s_at) / Fold change /veh OR2T12 /// OR2T33 /// OR2T8 (11738714_s_at) / RFU VCAN (11748164_a_at) / Fold change /veh VCAN (11748164_a_at) / RFU JSRP1 (11732532_at) / Fold change /veh JSRP1 (11732532_at) / RFU KRTAP10-11 (11738290_x_at) / Fold change /veh KRTAP10-11 (11738290_x_at) / RFU MYO3A (11730013_a_at) / Fold change /veh MYO3A (11730013_a_at) / RFU EBF3 (11725865_a_at) / Fold change /veh EBF3 (11725865_a_at) / RFU CAMK2N1 (11719241_x_at) / Fold change /veh CAMK2N1 (11719241_x_at) / RFU C5orf56 (11738088_a_at) / Fold change /veh C5orf56 (11738088_a_at) / RFU OLFML3 (11715873_a_at) / Fold change /veh OLFML3 (11715873_a_at) / RFU LOC100653217 /// NTM (11731650_a_at) / Fold change /veh LOC100653217 /// NTM (11731650_a_at) / RFU MAPK11 (11762145_a_at) / Fold change /veh MAPK11 (11762145_a_at) / RFU FIZ1 (11724087_x_at) / Fold change /veh FIZ1 (11724087_x_at) / RFU OASL (11726364_x_at) / Fold change /veh OASL (11726364_x_at) / RFU SOX15 (11748057_x_at) / Fold change /veh SOX15 (11748057_x_at) / RFU CD79A (11719716_a_at) / Fold change /veh CD79A (11719716_a_at) / RFU HIST1H1D (11736915_at) / Fold change /veh HIST1H1D (11736915_at) / RFU CASKIN2 (11723855_a_at) / Fold change /veh CASKIN2 (11723855_a_at) / RFU LOC730098 (11760151_x_at) / Fold change /veh LOC730098 (11760151_x_at) / RFU OR4N2 (11742367_at) / Fold change /veh OR4N2 (11742367_at) / RFU PRRT2 (11749266_a_at) / Fold change /veh PRRT2 (11749266_a_at) / RFU SNX32 (11753110_a_at) / Fold change /veh SNX32 (11753110_a_at) / RFU CDHR5 (11726645_a_at) / Fold change /veh CDHR5 (11726645_a_at) / RFU RCAN1 (11760418_a_at) / Fold change /veh RCAN1 (11760418_a_at) / RFU FAM167A (11723789_a_at) / Fold change /veh FAM167A (11723789_a_at) / RFU FAM26E (11764081_at) / Fold change /veh FAM26E (11764081_at) / RFU ISYNA1 (11749810_s_at) / Fold change /veh ISYNA1 (11749810_s_at) / RFU ACY1 (11761880_at) / Fold change /veh ACY1 (11761880_at) / RFU 11764098_at / Fold change /veh 11764098_at / RFU SAMD14 (11745864_x_at) / Fold change /veh SAMD14 (11745864_x_at) / RFU NPB (11741838_a_at) / Fold change /veh NPB (11741838_a_at) / RFU TMPRSS6 (11731388_a_at) / Fold change /veh TMPRSS6 (11731388_a_at) / RFU KRTAP10-2 (11738614_at) / Fold change /veh KRTAP10-2 (11738614_at) / RFU ARHGAP8 /// PRR5-ARHGAP8 (11727945_x_at) / Fold change /veh ARHGAP8 /// PRR5-ARHGAP8 (11727945_x_at) / RFU KRTAP5-7 /// NADSYN1 (11734609_at) / Fold change /veh KRTAP5-7 /// NADSYN1 (11734609_at) / RFU RASL12 (11751679_a_at) / Fold change /veh RASL12 (11751679_a_at) / RFU CDKN2B (11736163_a_at) / Fold change /veh CDKN2B (11736163_a_at) / RFU PRF1 (11729649_at) / Fold change /veh PRF1 (11729649_at) / RFU, ZNF638 /// ZNF638-IT1 / Fold change vs veh, ZNF638 /// ZNF638-IT1 / RFU, PANK3 / Fold change vs veh, PANK3 / RFU, SH3YL1 / Fold change vs veh, SH3YL1 / RFU, ZEB2 / Fold change vs veh, ZEB2 / RFU, NRIP1 / Fold change vs veh, NRIP1 / RFU, PTTG1IP / Fold change vs veh, PTTG1IP / RFU, CAPN2 / Fold change vs veh, CAPN2 / RFU, MED14 / Fold change vs veh, MED14 / RFU, SNORA58 / Fold change vs veh, SNORA58 / RFU, C1orf63 / Fold change vs veh, C1orf63 / RFU, LRRFIP1 / Fold change vs veh, LRRFIP1 / RFU, NDUFAF7 / Fold change vs veh, NDUFAF7 / RFU, SLC12A2 / Fold change vs veh, SLC12A2 / RFU, IBTK / Fold change vs veh, IBTK / RFU, ESF1 / Fold change vs veh, ESF1 / Fold change vs veh, TMEM50B / RFU, TAOK1 / Fold change vs veh, TAOK1 / RFU, ACBD3 / Fold change vs veh, ACBD3 / RFU, TMA16 / Fold change vs veh, TMA16 / RFU, RWDD3 / Fold change vs veh, RWDD3 / RFU, BCAT1 / Fold change vs veh, BCAT1 / RFU, EDEM3 / Fold change vs veh, EDEM3 / RFU, TMEM33 / Fold change vs veh, TMEM33 / RFU, WDR75 / Fold change vs veh, WDR75 / RFU, AHCTF1 / Fold change vs veh, AHCTF1 / RFU, TFRC / Fold change vs veh, TFRC / RFU, ZDHHC17 / Fold change vs veh, ZDHHC17 / RFU, NOM1 / Fold change vs veh, NOM1 / RFU, ARL8B / Fold change vs veh, ARL8B / RFU, ZBTB11 / Fold change vs veh, ZBTB11 / RFU, TAMM41 / Fold change vs veh, TAMM41 / RFU, KIAA1704 /// LOC100996395 / Fold change vs veh, KIAA1704 /// LOC100996395 / RFU, ING1 / Fold change vs veh, ING1 / RFU, TRMT61B / Fold change vs veh, TRMT61B / RFU, FUBP3 / Fold change vs veh, FUBP3 / RFU, TP53 / Fold change vs veh, TP53 / RFU, TNKS2 / Fold change vs veh, TNKS2 / RFU, ZFP14 / Fold change vs veh, ZFP14 / RFU, ACTR2 / Fold change vs veh, ACTR2 / RFU, PPP3R1 / Fold change vs veh, PPP3R1 / RFU, PIK3R1 / Fold change vs veh, PIK3R1 / RFU, HNRNPA1 / Fold change vs veh, HNRNPA1 / RFU, RNF170 / Fold change vs veh, RNF170 / RFU, ZNF28 / Fold change vs veh, ZNF28 / RFU, RNGTT / Fold change vs veh, RNGTT / RFU, OGT / Fold change vs veh, OGT / RFU, BRD1 / Fold change vs veh, BRD1 / RFU, MARS / Fold change vs veh, MARS / RFU, ZNF655 / Fold change vs veh, ZNF655 / RFU, FAHD1 / Fold change vs veh, FAHD1 / RFU, BDP1 / Fold change vs veh, BDP1 / RFU, LRRCC1 / Fold change vs veh, LRRCC1 / RFU, ARID1A / Fold change vs veh, ARID1A / RFU, ZNF146 / Fold change vs veh, ZNF146 / RFU, ZNF330 / Fold change vs veh, ZNF330 / RFU, GPN3 / Fold change vs veh, GPN3 / RFU, C9orf123 / Fold change vs veh, C9orf123 / RFU, N4BP2L2 / Fold change vs veh, N4BP2L2 / RFU, ARFIP1 / Fold change vs veh, ARFIP1 / RFU, FAM179B / Fold change vs veh, FAM179B / RFU, BCL10 / Fold change vs veh, BCL10 / RFU, UHRF1BP1L / Fold change vs veh, UHRF1BP1L / RFU, BET1 / Fold change vs veh, BET1 / RFU, CNOT2 / Fold change vs veh, CNOT2 / RFU, ZNF268 / Fold change vs veh, ZNF268 / Fold change vs veh, ZNF507 / RFU, DGCR2 / Fold change vs veh, DGCR2 / RFU, WDSUB1 / Fold change vs veh, WDSUB1 / Fold change vs veh, HSP90B1 /// MIR3652 / RFU, ADSS / Fold change vs veh, ADSS / RFU, GK / Fold change vs veh, GK / RFU, ZNF148 / Fold change vs veh, ZNF148 / RFU, TAF9 / Fold change vs veh, TAF9 / RFU, SLC1A5 / Fold change vs veh, SLC1A5 / RFU, SLMO2 / Fold change vs veh, SLMO2 / RFU, ABCC4 / Fold change vs veh, ABCC4 / RFU, LOC101060439 /// RAP1B / Fold change vs veh, LOC101060439 /// RAP1B / RFU, RFX7 / Fold change vs veh, RFX7 / RFU, GTPBP10 / Fold change vs veh, GTPBP10 / RFU, CNEP1R1 / Fold change vs veh, CNEP1R1 / RFU, BIVM-ERCC5 /// ERCC5 / Fold change vs veh, BIVM-ERCC5 /// ERCC5 / RFU, ILF3 / Fold change vs veh, ILF3 / RFU 11762660_at / Fold change /veh 11762660_at / RFU VCAN (11757783_s_at) / Fold change /veh VCAN (11757783_s_at) / RFU DDX43 (11728927_at) / Fold change /veh DDX43 (11728927_at) / RFU KRT8 (11758188_x_at) / Fold change /veh KRT8 (11758188_x_at) / RFU NKD1 (11759106_at) / Fold change /veh NKD1 (11759106_at) / RFU SRD5A1 (11742802_a_at) / Fold change /veh SRD5A1 (11742802_a_at) / RFU TPSAB1 /// TPSB2 (11721975_s_at) / Fold change /veh TPSAB1 /// TPSB2 (11721975_s_at) / RFU GSTM3 (11746129_a_at) / Fold change /veh GSTM3 (11746129_a_at) / RFU IL23R (11737362_x_at) / Fold change /veh IL23R (11737362_x_at) / RFU TMEM51 (11727254_a_at) / Fold change /veh TMEM51 (11727254_a_at) / RFU PIWIL2 (11732686_x_at) / Fold change /veh PIWIL2 (11732686_x_at) / RFU ORM1 (11744905_x_at) / Fold change /veh ORM1 (11744905_x_at) / RFU CCDC152 (11743942_at) / Fold change /veh CCDC152 (11743942_at) / RFU ECM1 (11717891_a_at) / Fold change /veh ECM1 (11717891_a_at) / RFU IL23R (11748794_a_at) / Fold change /veh IL23R (11748794_a_at) / RFU TNFAIP8L3 (11732012_x_at) / Fold change /veh TNFAIP8L3 (11732012_x_at) / RFU MBOAT4 (11741988_at) / Fold change /veh MBOAT4 (11741988_at) / RFU 11764193_at / Fold change /veh 11764193_at / RFU TMEM53 (11763286_at) / Fold change /veh TMEM53 (11763286_at) / RFU MAGEB2 (11727129_at) / Fold change /veh MAGEB2 (11727129_at) / RFU TMEM200A (11744735_a_at) / Fold change /veh TMEM200A (11744735_a_at) / RFU CCDC152 (11751479_a_at) / Fold change /veh CCDC152 (11751479_a_at) / RFU FAM211A (11726209_a_at) / Fold change /veh FAM211A (11726209_a_at) / RFU RGS16 (11746705_a_at) / Fold change /veh RGS16 (11746705_a_at) / RFU VCAN (11755009_s_at) / Fold change /veh VCAN (11755009_s_at) / RFU RHOB (11743442_s_at) / Fold change /veh RHOB (11743442_s_at) / RFU RGS16 (11720943_a_at) / Fold change /veh RGS16 (11720943_a_at) / RFU RGS16 (11720944_at) / Fold change /veh RGS16 (11720944_at) / RFU, VPS4B / Fold change vs veh, VPS4B / RFU, CREB1 / Fold change vs veh, CREB1 / RFU, DNAJC13 / Fold change vs veh, DNAJC13 / RFU, GNAQ / Fold change vs veh, GNAQ / RFU, CDK5R1 / Fold change vs veh, CDK5R1 / RFU, ZRANB3 / Fold change vs veh, ZRANB3 / RFU, CUL4A / Fold change vs veh, CUL4A / RFU, CCNY / Fold change vs veh, CCNY / RFU, UFL1 / Fold change vs veh, UFL1 / RFU, COG3 / Fold change vs veh, COG3 / RFU, DIAPH2 / Fold change vs veh, DIAPH2 / RFU, SKA2 / Fold change vs veh, SKA2 / RFU, AFF3 / Fold change vs veh, AFF3 / RFU, LMF1 / Fold change vs veh, LMF1 / RFU, IPO11 / Fold change vs veh, IPO11 / RFU, DFFB / Fold change vs veh, DFFB / RFU, FOXP1 / Fold change vs veh, FOXP1 / RFU, CARD8 / Fold change vs veh, CARD8 / RFU, STRN3 / Fold change vs veh, STRN3 / RFU, ADK / Fold change vs veh, ADK / RFU, RASSF2 / Fold change vs veh, RASSF2 / RFU, WIPF1 / Fold change vs veh, WIPF1 / RFU, LARP1B / Fold change vs veh, LARP1B / RFU, RASA1 / Fold change vs veh, RASA1 / RFU, RB1 / Fold change vs veh, RB1 / RFU, PPFIA1 / Fold change vs veh, PPFIA1 / RFU, MAT2A / Fold change vs veh, MAT2A / RFU, CCT5 / Fold change vs veh, CCT5 / RFU, WDR92 / Fold change vs veh, WDR92 / RFU, CUX1 / Fold change vs veh, CUX1 / RFU, TTC7A / Fold change vs veh, TTC7A / RFU, TMEM135 / Fold change vs veh, TMEM135 / RFU, DEPTOR / Fold change vs veh, DEPTOR / RFU, CPM / Fold change vs veh, CPM / RFU, DNAJB6 / Fold change vs veh, DNAJB6 / RFU, CACNA2D3 / Fold change vs veh, CACNA2D3 / RFU, DTX4 / Fold change vs veh, DTX4 / RFU, TFCP2 / Fold change vs veh, TFCP2 / RFU, GMCL1 /// GMCL1P1 / Fold change vs veh, GMCL1 /// GMCL1P1 / RFU, AEBP2 / Fold change vs veh, AEBP2 / RFU, SNHG1 /// SNORD22 /// SNORD25 /// SNORD26 /// SNORD27 /// SNORD28 /// SNORD29 /// SNORD31 / Fold change vs veh, SNHG1 /// SNORD22 /// SNORD25 /// SNORD26 /// SNORD27 /// SNORD28 /// SNORD29 /// SNORD31 / Fold change (Aza/veh), C12orf56 (ProbeSet 11735607_a_at) / Fold change (ACY-1035/veh), C12orf56 (ProbeSet 11735607_a_at) / Fold change (Aza/veh), FGFR1OP (ProbeSet 11751329_s_at) / Fold change (ACY-1035/veh), FGFR1OP (ProbeSet 11751329_s_at) / Fold change (Aza/veh), VPS36 (ProbeSet 11739960_a_at) / Fold change (ACY-1035/veh), VPS36 (ProbeSet 11739960_a_at) / RFU SYPL1 (11715823_x_at) / Fold change /veh SYPL1 (11715823_x_at) / RFU IGFBP7 (11715501_s_at) / Fold change /veh IGFBP7 (11715501_s_at) / RFU REEP3 (11722064_at) / Fold change /veh REEP3 (11722064_at) / RFU IGLL1 (11728026_x_at) / Fold change /veh IGLL1 (11728026_x_at): dose or concentration left out as unconfirmed
Conditions: MV-4-11 cells, 48 hours

Nc1ncn([C@@H]2O[C@H](CO)[C@@H](O)[C@H]2O)c(=O)n1 [azacitidine]
Fold change /veh KRT8 (11758188_x_at): 1.26
